In patent publication US20240043404A1 (AbbVie Inc., priority 2009, published 2024):

Test system: RS4;11 cells
Experiment: RS4;11 cell viability assay (CellTiter Glo);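 further: acute lymphoblastic leukemia line RS4,11, EC50 derived from percentage of viable cells after treatment relative to untreated controls, cell killing taken as a measure of Bcl-2 inhibition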
Format: cell-based, human
Conditions: Homo sapiens, RS4-11, 48 h, 50,000 cells per well, 10% human serum, 48 hours; read-out: RS4; 11 EC50 Values
Procedure: The acute lymphoblastic leukemia (ALL) cell line RS4;11 was used as the primary human cell line to assess the cellular activity of Bcl-2 selective agents in vitro and their efficacy in vivo.
Cell cytotoxicity EC50 values were assessed using CellTiter Glo (Promega) according to the manufacturer's recommendations. The EC50 values were determined as a percentage of viable cells following treatment compared to the untreated control cells.

Q: How did the EC50 turn out when CC1(C)CC(c2ccc(Cl)cc2)=C(CN2CCN(c3ccc(C(=O)NS(=O)(=O)c4ccc(NCC5CCOCC5)c(C(F)(F)F)c4)c(Oc4cnc5[nH]ccc5c4)c3)CC2)CO1 [Example 42, 4-(4-{[4-(4-chlorophenyl)-6,6-dimethyl-5,6-dihydro-2H-pyran-3-yl]methyl}piperazin-1-yl)-2-(1H-pyrrolo[2,3-b]pyridin-5-yloxy)-N-{[4-[(tetrahydro-2H-pyran-4-ylmethyl)amino]-3-(trifluoromethyl)phenyl]sulfonyl}benzamide] was run?
A: 0.534 µM

Q: For CC1(C)CC(c2ccc(Cl)cc2)=C(CN2CCN(c3ccc(C(=O)NS(=O)(=O)c4ccc(NCC5CCOCC5)c(S(=O)(=O)C(F)(F)F)c4)c(Oc4cnc5[nH]ccc5c4)c3)CC2)CO1 [Example 43, 4-(4-{[4-(4-chlorophenyl)-6,6-dimethyl-5,6-dihydro-2H-pyran-3-yl]methyl}piperazin-1-yl)-2-(1H-pyrrolo[2,3-b]pyridin-5-yloxy)-N-({4-[(tetrahydro-2H-pyran-4-ylmethyl)amino]-3-[(trifluoromethyl)sulfonyl]phenyl}sulfonyl)benzamide], which EC50 is on record?
A: 0.272 µM

Q: CC1(C)CC(c2ccc(Cl)cc2)=C(CN2CCN(c3ccc(C(=O)NS(=O)(=O)c4ccc(N[C@H]5CC[C@H](N6CCOCC6)CC5)c(S(=O)(=O)C(F)(F)F)c4)c(Oc4cnc5[nH]ccc5c4)c3)CC2)CO1 [Example 44, Trans-4-(4-{[4-(4-chlorophenyl)-6,6-dimethyl-5,6-dihydro-2H-pyran-3-yl]methyl}piperazin-1-yl)-N-({4-[(4-morpholin-4-ylcyclohexyl)amino]-3-[(trifluoromethyl)sulfonyl]phenyl}sulfonyl)-2-(1H-pyrrolo[2,3-b]pyridin-5-yloxy)benzamide] was tested. Which EC50 did it give?
A: 0.0531 µM

Q: Which EC50 does the source give for CN1CCC(Nc2ccc(S(=O)(=O)NC(=O)c3ccc(N4CCN(CC5=C(c6ccc(Cl)cc6)CC(C)(C)OC5)CC4)cc3Oc3cnc4[nH]ccc4c3)cc2S(=O)(=O)C(F)(F)F)CC1 [Example 45, 4-(4-{[4-(4-chlorophenyl)-6,6-dimethyl-5,6-dihydro-2H-pyran-3-yl]methyl}piperazin-1-yl)-N-({4-[(1-methylpiperidin-4-yl)amino]-3-[(trifluoromethyl)sulfonyl]phenyl}sulfonyl)-2-(1H-pyrrolo[2,3-b]pyridin-5-yloxy)benzamide] here?
A: 0.00992 µM

Q: CC1(C)CCC(CN2CCN(c3ccc(C(=O)NS(=O)(=O)c4cnc(OCC5CCOCC5)c(C(N)=O)c4)c(Oc4cnc5[nH]ccc5c4)c3)CC2)=C(c2ccc(Cl)cc2)C1 [Example 46, 5-({[4-(4-{[2-(4-chlorophenyl)-4,4-dimethylcyclohex-1-en-1-yl]methyl}piperazin-1-yl)-2-(1H-pyrrolo[2,3-b]pyridin-5-yloxy)benzoyl]amino}sulfonyl)-2-(tetrahydro-2H-pyran-4-ylmethoxy)nicotinamide] was tested. Which EC50 did it give?
A: > 5 µM

Q: How did the EC50 turn out when CN1CCC(COc2ncc(S(=O)(=O)NC(=O)c3ccc(N4CCN(CC5=C(c6ccc(Cl)cc6)CC(C)(C)CC5)CC4)cc3Oc3cnc4[nH]ccc4c3)cc2Br)CC1 [Example 47, N-({5-bromo-6-[(1-methylpiperidin-4-yl)methoxy]pyridin-3-yl}sulfonyl)-4-(4-{[2-(4-chlorophenyl)-4,4-dimethylcyclohex-1-en-1-yl]methyl}piperazin-1-yl)-2-(1H-pyrrolo[2,3-b]pyridin-5-yloxy)benzamide] was run?
A: 0.0326 µM

Q: For CN1CCC(COc2ccc(S(=O)(=O)NC(=O)c3ccc(N4CCN(CC5=C(c6ccc(Cl)cc6)CC(C)(C)CC5)CC4)cc3Oc3cnc4[nH]ccc4c3)cc2[N+](=O)[O-])CC1 [Example 48, 4-(4-{[2-(4-chlorophenyl)-4,4-dimethylcyclohex-1-en-1-yl]methyl}piperazin-1-yl)-N-({4-[(1-methylpiperidin-4-yl)methoxy]-3-nitrophenyl}sulfonyl)-2-(1H-pyrrolo[2,3-b]pyridin-5-yloxy)benzamide], which EC50 is on record?
A: 0.00333 µM

Q: For CC1(C)CCC(CN2CCN(c3ccc(C(=O)NS(=O)(=O)c4cnc(OCC5COCCO5)c(C#N)c4)c(Oc4cnc5[nH]ccc5c4)c3)CC2)=C(c2ccc(Cl)cc2)C1 (stereo not shown) [Example 49, 4-(4-{[2-(4-chlorophenyl)-4,4-dimethylcyclohex-1-en-1-yl]methyl}piperazin-1-yl)-N-{[5-cyano-6-(1,4-dioxan-2-ylmethoxy)pyridin-3-yl]sulfonyl}-2-(1H-pyrrolo[2,3-b]pyridin-5-yloxy)benzamide], which EC50 is on record?
A: 0.352 µM

Q: CC1(C)CCC(CN2CCN(c3ccc(C(=O)NS(=O)(=O)c4cnc(OCC5COCCO5)c(Br)c4)c(Oc4cnc5[nH]ccc5c4)c3)CC2)=C(c2ccc(Cl)cc2)C1 (stereo not shown) [Example 50, N-{[5-bromo-6-(1,4-dioxan-2-ylmethoxy)pyridin-3-yl]sulfonyl}-4-(4-{[2-(4-chlorophenyl)-4,4-dimethylcyclohex-1-en-1-yl]methyl}piperazin-1-yl)-2-(1H-pyrrolo[2,3-b]pyridin-5-yloxy)benzamide] was tested. Which EC50 did it give?
A: 0.313 µM

Q: CC1(C)CCC(CN2CCN(c3ccc(C(=O)NS(=O)(=O)c4ccc(OCC5CCOC(C)(C)C5)c([N+](=O)[O-])c4)c(Oc4cnc5[nH]ccc5c4)c3)CC2)=C(c2ccc(Cl)cc2)C1 (stereo not shown) [Example 51, 4-(4-{[2-(4-chlorophenyl)-4,4-dimethylcyclohex-1-en-1-yl]methyl}piperazin-1-yl)-N-({4-[(2,2-dimethyltetrahydro-2H-pyran-4-yl)methoxy]-3-nitrophenyl}sulfonyl)-2-(1H-pyrrolo[2,3-b]pyridin-5-yloxy)benzamide] was tested. Which EC50 did it give?
A: 0.0231 µM

Q: With CC1(C)CCC(CN2CCN(c3ccc(C(=O)NS(=O)(=O)c4cc(Cl)c(NCC5CCOCC5)c(C#N)c4)c(Oc4cnc5[nH]ccc5c4)c3)CC2)=C(c2ccc(Cl)cc2)C1 [Example 52, N-({3-chloro-5-cyano-4-[(tetrahydro-2H-pyran-4-ylmethyl)amino]phenyl}sulfonyl)-4-(4-{[2-(4-chlorophenyl)-4,4-dimethylcyclohex-1-en-1-yl]methyl}piperazin-1-yl)-2-(1H-pyrrolo[2,3-b]pyridin-5-yloxy)benzamide] as the compound, how does the EC50 read?
A: 0.2 µM

Q: Which EC50 does the source give for CC(=O)N1CCC(Nc2ccc(S(=O)(=O)NC(=O)c3ccc(N4CCN(CC5=C(c6ccc(Cl)cc6)CC(C)(C)CC5)CC4)cc3Oc3cnc4[nH]ccc4c3)cc2[N+](=O)[O-])CC1 [Example 53, N-({4-[(1-acetylpiperidin-4-yl)amino]-3-nitrophenyl}sulfonyl)-4-(4-{[2-(4-chlorophenyl)-4,4-dimethylcyclohex-1-en-1-yl]methyl}piperazin-1-yl)-2-(1H-pyrrolo[2,3-b]pyridin-5-yloxy)benzamide] here?
A: 0.0667 µM

Q: With CC1(C)CCC(CN2CCN(c3ccc(C(=O)NS(=O)(=O)c4cc(F)c(NCC5CCOCC5)cc4Cl)c(Oc4cnc5[nH]ccc5c4)c3)CC2)=C(c2ccc(Cl)cc2)C1 [Example 54, N-({2-chloro-5-fluoro-4-[(tetrahydro-2H-pyran-4-ylmethyl)amino]phenyl}sulfonyl)-4-(4-{[2-(4-chlorophenyl)-4,4-dimethylcyclohex-1-en-1-yl]methyl}piperazin-1-yl)-2-(1H-pyrrolo[2,3-b]pyridin-5-yloxy)benzamide] as the compound, how does the EC50 read?
A: 1.92 µM

Q: CC1(C)CCC(CN2CCN(c3ccc(C(=O)NS(=O)(=O)c4ccc(NCCCN5CCOCC5)c([N+](=O)[O-])c4)c(Oc4cnc5[nH]ccc5c4)c3)CC2)=C(c2ccc(Cl)cc2)C1 [Example 55, 4-(4-{[2-(4-chlorophenyl)-4,4-dimethylcyclohex-1-en-1-yl]methyl}piperazin-1-yl)-N-({4-[(3-morpholin-4-ylpropyl)amino]-3-nitrophenyl}sulfonyl)-2-(1H-pyrrolo[2,3-b]pyridin-5-yloxy)benzamide] was tested. Which EC50 did it give?
A: 0.0132 µM

Q: CC1(C)CCC(CN2CCN(c3ccc(C(=O)NS(=O)(=O)c4cnc(OCC5(F)CCOCC5)c(C#N)c4)c(Oc4cnc5[nH]ccc5c4)c3)CC2)=C(c2ccc(Cl)cc2)C1 [Example 56, 4-(4-{[2-(4-chlorophenyl)-4,4-dimethylcyclohex-1-en-1-yl]methyl}piperazin-1-yl)-N-({5-cyano-6-[(4-fluorotetrahydro-2H-pyran-4-yl)methoxy]pyridin-3-yl}sulfonyl)-2-(1H-pyrrolo[2,3-b]pyridin-5-yloxy)benzamide] was tested. Which EC50 did it give?
A: 0.0865 µM

Q: With CC1(C)CCC(CN2CCN(c3ccc(C(=O)NS(=O)(=O)c4cnc(OCCN5CCOCC5)c(C#N)c4)c(Oc4cnc5[nH]ccc5c4)c3)CC2)=C(c2ccc(Cl)cc2)C1 [Example 57, 4-(4-{[2-(4-chlorophenyl)-4,4-dimethylcyclohex-1-en-1-yl]methyl}piperazin-1-yl)-N-{[5-cyano-6-(2-morpholin-4-ylethoxy)pyridin-3-yl]sulfonyl}-2-(1H-pyrrolo[2,3-b]pyridin-5-yloxy)benzamide] as the compound, how does the EC50 read?
A: 0.426 µM

Q: COCCOCCS(=O)(=O)c1ccc(S(=O)(=O)NC(=O)c2ccc(N3CCN(CC4=C(c5ccc(Cl)cc5)CC(C)(C)CC4)CC3)cc2Oc2cnc3[nH]ccc3c2)cc1Cl [Example 58, N-[(3-chloro-4-{[2-(2-methoxyethoxy)ethyl]sulfonyl}phenyl)sulfonyl]-4-(4-{[2-(4-chlorophenyl)-4,4-dimethylcyclohex-1-en-1-yl]methyl}piperazin-1-yl)-2-(1H-pyrrolo[2,3-b]pyridin-5-yloxy)benzamide] was tested. Which EC50 did it give?
A: > 5 µM

Q: COCCOCCS(=O)(=O)c1ccc(S(=O)(=O)NC(=O)c2ccc(N3CCN(CC4=C(c5ccc(Cl)cc5)CC(C)(C)CC4)CC3)cc2Oc2cnc3[nH]ccc3c2)cc1[N+](=O)[O-] [Example 59, 4-(4-{[2-(4-chlorophenyl)-4,4-dimethylcyclohex-1-en-1-yl]methyl}piperazin-1-yl)-N-[(4-{[2-(2-methoxyethoxy)ethyl]sulfonyl}-3-nitrophenyl)sulfonyl]-2-(1H-pyrrolo[2,3-b]pyridin-5-yloxy)benzamide] was tested. Which EC50 did it give?
A: 0.722 µM

Q: CC1(C)CCC(CN2CCN(c3ccc(C(=O)NS(=O)(=O)c4ccc(O[C@H]5CC[C@H](N6CCOCC6)CC5)c([N+](=O)[O-])c4)c(Oc4cnc5[nH]ccc5c4)c3)CC2)=C(c2ccc(Cl)cc2)C1 [Example 60, Trans-4-(4-{[2-(4-chlorophenyl)-4,4-dimethylcyclohex-1-en-1-yl]methyl}piperazin-1-yl)-N-({4-[(4-morpholin-4-ylcyclohexyl)oxy]-3-nitrophenyl}sulfonyl)-2-(1H-pyrrolo[2,3-b]pyridin-5-yloxy)benzamide] was tested. Which EC50 did it give?
A: 0.0595 µM
